Reference: US10590276B2, “Aqueous suspension of inorganic particulate material” (ImerTech SAS, priority 2013, dated 2020)
Marks after values point to notes of the source that are not given here.

Tests used:
[1] = pH of calcium carbonate slurry after sequential 50 mg/kg additions (Example 2); type: physicochemical; conditions: for δ pH: change per 50 mg/kg aliquot
Source text: The pH of the aqueous suspension may be measured using any conventional pH meter. For example, the pH of the aqueous suspension may be measured using the Digital pH meter “Mettler Toledo FE20”, which has been calibrated in accordance with the manufacturer's instructions, using buffer solutions with nominal values of 4, 7 and 9. This may be carried out using either a manual or automatic method, depending on the type of instrument being used.
(§1) The pH of the aqueous suspension may be measured by: • mixing a sample of the aqueous suspension to ensure homogeneity, by using either the bench stirrer or the rotating rollers, or by shaking the sample container and contents vigorously; • measuring the temperature of the sample and adjusting the temperature to 22° C.; • removing the pH electrode from its deionised water storage solution and immersing it carefully into the test slurry; • waiting until a stable pH reading is obtained; • recording the pH value of the undisturbed slurry. Viscosity
50 mg/kg aliquots of either AMP or DMEA were sequentially added to 250 g calcium carbonate slurry samples having 78 wt % solids and 60% of particles less than 2 μm in size (measured using a micrometrics sedigraph). In this context, 50 mg/kg means that 50 mg of AMP or DMEA was added per kg of dry inorganic particulate material in the aqueous suspension. The pH of the samples was measured after stirring immediately after each 50 mg/kg addition.

[2] = pH recovery of calcium carbonate slurry after lowering to pH 8 with CO2 enriched air (Example 1); type: physicochemical
Source text: The pH of the aqueous suspension may be measured using any conventional pH meter. […] This may be carried out using either a manual or automatic method, depending on the type of instrument being used.
as §1
1 kg samples of a calcium carbonate slurry having 78 wt % solids and 60% of particles less than 2 μm in size (measured using a micrometrics sedigraph) were adjusted to […] at room temperature using 2-amino-2-methyl-1-propanol (AMP) or dimethylethanolamine (DMEA). The control sample was adjusted to pH 10 using dilute sodium hydroxide solution. The solids content of the samples was adjusted using deionised water.
The pH of each slurry was lowered to pH 8 by aspirating the sample with carbon dioxide (CO2) enriched air (2%) using a flow rate of 5 mL/min. When pH 8 had been reached, aspiration of the sample was stopped.
Recovery of the sample pH was then monitored and recorded over subsequent days using the Mettler Toledo FE20 pH meter as described above in the detailed description.

[3] = test system: microbes in contaminated calcium carbonate slurry; experiment: Total viable count of contaminated calcium carbonate slurry (Examples 3-5); type: cell-based, bacteria; conditions: for level of microbes compared with samples comprising no DMEA: 400, 500 and 600 ppm DMEA alone
Protocol: The microbe level, for example the total viable count, of the aqueous suspension may be measured using growth medium such as Petrifilm or dipslides. The material under test (for example the aqueous suspension of inorganic particulate material) is diluted with a buffer solution and a measured amount of the dilution is placed on a growth medium (for example, Petrifilm). This is incubated for 48 hours, after which time the number of colonies of bacteria is counted. Each colony has developed from one single bacterium or colony forming unit (cfu). Therefore, the number of colonies, multiplied by the dilution factor, is equivalent to the number of original colony forming units per gram or millilitre of slurry.
For example, the total viable count of an aqueous suspension may be measured by: • mixing a sample of aqueous suspension of inorganic particulate material thoroughly by shaking its container vigorously; • measuring the required weight or volume of the sample. For example, if the results are to be recorded as colony forming units per g (cfu/g), a container containing the buffer solution is placed on the balance and the balance is set to zero. Approximately 1 g of slurry is weighed into the container and its weight is recorded to within 0.1 g. The contents of the container are mixed by shaking it vigorously. If the results are to be recorded as colony forming units per ml (cfu/ml), 1 ml of slurry may be added to a container containing the buffer solution. The contents of the container are mixed by shaking it vigorously; • distributing the diluted sample evenly on the growth medium. The plate may be left undisturbed for at least one minute to allow the gel to solidify; • incubating the contents of the growth medium (for example Petrifilm plates) for 48 hours±2 hours at 30° C.±2° C.; • counting the number of colonies on the growth medium (for example Petrifilm); • calculating the total viable count of the sample by multiplying the number of colonies on the growth medium (for example Petrifilm) by the dilution factor and dividing this by the weight or volume of the sample which was plated on the growth medium. For example:
(§2) Samples of a contaminated calcium carbonate slurry having 78 wt % solids and 60% of particles less than 2 μm in size (measured using a micrometrics sedigraph) comprising various amounts of the biocide glutaraldehyde, and DMEA were prepared. The total viable count (cfu/ml) of each sample was measured after 0, 1 and 7 days by the method described above in the detailed description.
Samples of a contaminated calcium carbonate slurry having 78 wt % solids and 60% of particles less than 2 μm in size (measured using a micrometrics sedigraph) comprising various amounts of DMEA and the biocides benzisothiazolinone (BIT) and methylisothiazolinone (MIT) were prepared. The total viable count (cfu/ml) of each sample was measured after 0, 1 and 7 days by the method described above in the detailed description.
as §2, with “of” for “of the biocide glutaraldehyde, and”

[4] = total 50 mg/kg of chemical added
[5] = total 100 mg/kg of chemical added
[6] = total 150 mg/kg of chemical added
[7] = total 200 mg/kg of chemical added
[8] = total 250 mg/kg of chemical added
[9] = total 300 mg/kg of chemical added
[10] = total 350 mg/kg of chemical added
[11] = total 400 mg/kg of chemical added
[12] = total 450 mg/kg of chemical added
[13] = total 500 mg/kg of chemical added
[14] = total 550 mg/kg of chemical added
[15] = total 600 mg/kg of chemical added
[16] = day 0.5, lowered to pH 8 with CO2

Structure (SMILES): CC(C)(N)CO [AMP, 2-amino-2-methyl-1-propanol, reference compound]
- δ pH ([1]; total 50 mg/kg added): 0.27
- pH of sample [1, 4]: 9.28
- δ pH ([1]; total 100 mg/kg added): 0.21
- pH of sample [1, 5]: 9.49
- δ pH ([1]; total 150 mg/kg added): 0.15
- pH of sample [1, 6]: 9.64
- δ pH ([1]; total 200 mg/kg added): 0.14
- pH of sample [1, 7]: 9.78
- δ pH ([1]; total 250 mg/kg added): 0.14
- pH of sample [1, 8]: 9.92
- δ pH ([1]; total 300 mg/kg added): 0.09
- pH of sample [1, 9]: 10.01
- δ pH ([1]; total 350 mg/kg added): 0.07
- pH of sample [1, 10]: 10.08
- δ pH ([1]; total 400 mg/kg added): 0.07
- pH of sample [1, 11]: 10.15
- δ pH ([1]; total 450 mg/kg added): 0.07
- pH of sample [1, 12]: 10.22
- δ pH ([1]; total 500 mg/kg added): 0.05
- pH of sample [1, 13]: 10.27
- δ pH ([1]; total 550 mg/kg added): 0.05
- pH of sample [1, 14]: 10.32
- δ pH ([1]; total 600 mg/kg added): 0.05
- pH of sample [1, 15]: 10.37
- pH of sample ([2]; day 0, before CO2 aspiration): 9.50
- δ pH ([2]; day 0.5): 0.00
- pH of sample [2, 16]: 8.00
- pH of sample ([2]; day 1): 8.16
- δ pH ([2]; day 1): 0.13
- pH of sample ([2]; day 2): 8.26
- δ pH ([2]; day 2): 0.23
- pH of sample ([2]; day 16): 8.46
- δ pH ([2]; day 16): 0.43
- pH of sample ([2]; day 20): 8.50
- δ pH ([2]; day 20): 0.47
- pH of sample ([2]; day 23): 8.52
- δ pH ([2]; day 23): 0.49
- pH of sample ([2]; day 24): 8.58
- δ pH ([2]; day 24): 0.55
- pH of sample ([2]; day 27): 8.61
- δ pH ([2]; day 27): 0.58
- pH of sample ([2]; day 28): 8.66
- δ pH ([2]; day 28): 0.66

Structure (SMILES): CN(C)CCO [DMEA, Dimethylethanolamine]
- level of microbes compared with samples comprising no DMEA ([3]; after 0 days): slightly reduced the level of microbes
- level of microbes compared with samples comprising no DMEA ([3]; after 1 day and 7 days): further reduced the level of microbes
- Total Viable Count (cfu/ml) of sample as 10^x, x ([3]; 400 ppm DMEA in sample, 0 days after preparation): 5 cfu/ml as 10^x
- Total Viable Count (cfu/ml) of sample as 10^x, x ([3]; 400 ppm DMEA in sample, 1 day after preparation): 4 cfu/ml as 10^x
- Total Viable Count (cfu/ml) of sample as 10^x, x ([3]; 400 ppm DMEA in sample, 7 days after preparation): 0.1 cfu/ml as 10^x
- Total Viable Count (cfu/ml) of sample as 10^x, x ([3]; 500 ppm DMEA in sample, 0 days after preparation): 5 cfu/ml as 10^x
- Total Viable Count (cfu/ml) of sample as 10^x, x ([3]; 500 ppm DMEA in sample, 1 day after preparation): 4 cfu/ml as 10^x
- Total Viable Count (cfu/ml) of sample as 10^x, x ([3]; 500 ppm DMEA in sample, 7 days after preparation): 0.1 cfu/ml as 10^x
- Total Viable Count (cfu/ml) of sample as 10^x, x ([3]; 600 ppm DMEA in sample, 0 days after preparation): 5 cfu/ml as 10^x
- Total Viable Count (cfu/ml) of sample as 10^x, x ([3]; 600 ppm DMEA in sample, 1 day after preparation): 4 cfu/ml as 10^x
- Total Viable Count (cfu/ml) of sample as 10^x, x ([3]; 600 ppm DMEA in sample, 7 days after preparation): 0.1 cfu/ml as 10^x
- reducing total viable count compared with glutaraldehyde alone ([3]; DMEA in combination with 50, 100 or 400 ppm glutaraldehyde, after 1 and 7 days): at least as effective
- total viable count compared with glutaraldehyde alone ([3]; DMEA in combination with 50 ppm glutaraldehyde, after 0 days): lower total viable count
- total viable count compared with BIT/MIT but no DMEA ([3]; DMEA in combination with 81, 162 or 650 ppm BIT/MIT, after 1 day and 7 days): lower total viable count
- δ pH ([1]; total 50 mg/kg added): 0.25
- pH of sample [1, 4]: 9.19
- δ pH ([1]; total 100 mg/kg added): 0.17
- pH of sample [1, 5]: 9.36
- δ pH ([1]; total 150 mg/kg added): 0.13
- pH of sample [1, 6]: 9.49
- δ pH ([1]; total 200 mg/kg added): 0.11
- pH of sample [1, 7]: 9.60
- δ pH ([1]; total 250 mg/kg added): 0.07
- pH of sample [1, 8]: 9.67
- δ pH ([1]; total 300 mg/kg added): 0.07
- pH of sample [1, 9]: 9.74
- δ pH ([1]; total 350 mg/kg added): 0.06
- pH of sample [1, 10]: 9.80
- δ pH ([1]; total 400 mg/kg added): 0.05
- pH of sample [1, 11]: 9.85
- δ pH ([1]; total 450 mg/kg added): 0.05
- pH of sample [1, 12]: 9.90
- δ pH ([1]; total 500 mg/kg added): 0.05
- pH of sample [1, 13]: 9.95
- δ pH ([1]; total 550 mg/kg added): 0.04
- pH of sample [1, 14]: 9.99
- δ pH ([1]; total 600 mg/kg added): 0.02
- pH of sample [1, 15]: 10.01
- pH of sample ([2]; day 0, before CO2 aspiration): 10.00
- δ pH ([2]; day 0.5): 0.00
- pH of sample [2, 16]: 8.00
- pH of sample ([2]; day 1): 8.22
- δ pH ([2]; day 1): 0.22
- pH of sample ([2]; day 2): 8.28
- δ pH ([2]; day 2): 0.28
- pH of sample ([2]; day 3): 8.35
- δ pH ([2]; day 3): 0.35
- pH of sample ([2]; day 4): 8.43
- δ pH ([2]; day 4): 0.43
- pH of sample ([2]; day 9): 8.52
- δ pH ([2]; day 9): 0.52
- pH of sample ([2]; day 11): 8.55
- δ pH ([2]; day 11): 0.55
- pH of sample ([2]; day 16): 8.58
- δ pH ([2]; day 16): 0.58
- pH of sample ([2]; day 20): 8.60
- δ pH ([2]; day 20): 0.60
- pH of sample ([2]; day 23): 8.64
- δ pH ([2]; day 23): 0.64
- pH of sample ([2]; day 24): 8.65
- δ pH ([2]; day 24): 0.65
- pH of sample ([2]; day 27): 8.70
- δ pH ([2]; day 27): 0.70
- pH of sample ([2]; day 28): 8.79
- δ pH ([2]; day 28): 0.79
- pH recovery compared with sample comprising AMP and control sample ([2]; recovery from pH 8): increased more rapidly and to a higher level
- pH the sample increased to ([2]; recovery from pH 8, end of monitoring, control sample 8.3): 8.8
